Experimental findings from patent US8598365B2, “Herbicides” (Syngenta Limited, priority 2007, dated 2013) are described below.

Each structure is given as a SMILES string.

What all share (format): in vivo
For test [1], the system named is Echinochloa crus-galli (ECHCG). As to the kind of experiment: Example B pre-emergence herbicidal activity. As to conditions: 312 h, rate 250 g/ha, evaluated after 13 days, read-out: Pre-Emergence Activity ECHCG (100=total damage to plant; 0=no damage to plant). Put shortly:
(§1)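 Plants were sprayed 1 day after sowing (pre-emergence) or after 8 days (post-emergence) with active ingredient in acetone/water 50:50 plus 0.5% Tween 20. They were grown in a glasshouse at 24/16 °C, 14 h light and 65% humidity. Damage was scored visually 0–100 after 13 days.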

Test [2] relates to Alopecurus myosuroides (ALOMY). In words: Example B pre-emergence herbicidal activity. As to conditions: 312 h, rate 250 g/ha, evaluated after 13 days, read-out: Pre-Emergence Activity ALOMY (100=total damage to plant; 0=no damage to plant). Put shortly:
as §1

Test [3] relates to Amaranthus retoflexus (AMARE). In words: Example B pre-emergence herbicidal activity. The note with it: Amaranthus retroflexus, 312 h, rate 250 g/ha, evaluated after 13 days, read-out: Pre-Emergence Activity AMARE (100=total damage to plant; 0=no damage to plant). The procedure, abridged: as §1
In test [4] the test system is Setaria faberi (SETFA). As to the kind of experiment: Example B pre-emergence herbicidal activity. As to conditions: 312 h, rate 250 g/ha, evaluated after 13 days, read-out: Pre-Emergence Activity SETFA (100=total damage to plant; 0=no damage to plant). Put shortly: as §1
In test [5] the test system is Avena fatua (AVEFA). In words: Example B pre-emergence herbicidal activity. The note with it: 312 h, rate 250 g/ha, evaluated after 13 days, read-out: Pre-Emergence Activity AVEFA (100=total damage to plant; 0=no damage to plant). Put shortly:
as §1

The subject of test [6] is Echinochloa crus-galli (ECHCG). In words: Example B post-emergence herbicidal activity. The note with it: 312 h, rate 250 g/ha, evaluated after 13 days, read-out: Post-emergence activity ECHCG (100=total damage to plant; 0=no damage to plant). Put shortly: as §1
For test [7], the system named is Alopecurus myosuroides (ALOMY). In words: Example B post-emergence herbicidal activity. As to conditions: 312 h, rate 250 g/ha, evaluated after 13 days, read-out: Post-emergence activity ALOMY (100=total damage to plant; 0=no damage to plant). The procedure, abridged:
as §1

Test [8] relates to Amaranthus retoflexus (AMARE). As to the kind of experiment: Example B post-emergence herbicidal activity. The note with it: Amaranthus retroflexus, 312 h, rate 250 g/ha, evaluated after 13 days, read-out: Post-emergence activity AMARE (100=total damage to plant; 0=no damage to plant). Put shortly: as §1
Test [9] relates to Setaria faberi (SETFA). In words: Example B post-emergence herbicidal activity. As to conditions: 312 h, rate 250 g/ha, evaluated after 13 days, read-out: Post-emergence activity SETFA (100=total damage to plant; 0=no damage to plant). Put shortly:
as §1

Test [10] has as its system Avena fatua (AVEFA). In words: Example B post-emergence herbicidal activity. The note with it: 312 h, rate 250 g/ha, evaluated after 13 days, read-out: Post-emergence activity AVEFA (100=total damage to plant; 0=no damage to plant). Put shortly: as §1

With `Cc1sc(-c2ccc(C(F)(F)F)cc2)nc1C1C(=O)[C@@H]2CC[C@@H](C2)C1=O` (stereo partly shown) [Compound T59], the pest or weed control at 250 g/ha in [1] was 90%; in test [2], 80%; in [3], 0%; in the test with Setaria faberi (SETFA) [4], 100%; with Avena fatua (AVEFA) [5], 70%; in test [6], 100%. Moreover, the pest or weed control at 250 g/ha in [7] worked out at 100%; in [8] it was 0%; with Setaria faberi (SETFA) [9], 100%; with Avena fatua (AVEFA) [10] it was 80%.

`Cc1sc(-c2ccc3ccccc3c2)nc1C1C(=O)[C@@H]2CC[C@@H](C2)C1=O` (stereo partly shown) [Compound T63]: the pest or weed control at 250 g/ha in [1] amounted to 100%; in [2], 90%; in [3] it was 0%; with Setaria faberi (SETFA) [4], 90%; in the test with Avena fatua (AVEFA) [5] it was 90%; in [6], 100%. Besides, the pest or weed control at 250 g/ha in test [7] turned out to be 60%; in test [8], 0%; in the test with Setaria faberi (SETFA) [9] it was 100%; in the test with Avena fatua (AVEFA) [10], 70%.

Take `Cc1sc(-c2ccc3c(c2)OCCO3)nc1C1C(=O)[C@@H]2CC[C@@H](C2)C1=O` (stereo partly shown) [Compound T64]: the pest or weed control at 250 g/ha in [1] worked out at 0%; in test [2], 20%; in test [3], 0%; with Setaria faberi (SETFA) [4] it was 0%; with Avena fatua (AVEFA) [5] it was 0%; in [6], 50%. Moreover, the pest or weed control at 250 g/ha worked out at 0% in [7], 0% in [8], 70% with Setaria faberi (SETFA) [9] and 0% in the test on Avena fatua (AVEFA) [10].

In the case of `Cc1sc(-c2ccc(C#N)cc2)nc1C1C(=O)[C@@H]2CC[C@@H](C2)C1=O` (stereo partly shown) [Compound T65], the pest or weed control at 250 g/ha in [1] amounted to 100%; in test [2], 50%; in [3], 20%; in the test with Setaria faberi (SETFA) [4], 100%; in the test with Avena fatua (AVEFA) [5], 20%; in test [6], 100%. The pest or weed control at 250 g/ha in test [7] was 50%; in [8], 70%; in the test with Setaria faberi (SETFA) [9], 100%; in the test with Avena fatua (AVEFA) [10], 70%.

As to `COCOc1ccc(-c2nc(C3C(=O)[C@@H]4CC[C@@H](C4)C3=O)c(C)s2)cc1` (stereo partly shown) [Compound T66], the pest or weed control at 250 g/ha is 30% in test [1]; 10% in [2]; 0% in test [3]; 30% with Setaria faberi (SETFA) [4]; 0% in the test with Avena fatua (AVEFA) [5]; 70% in [6]. For the same molecule, the pest or weed control at 250 g/ha came out at 10% in test [7], 0% in test [8], 70% in the test with Setaria faberi (SETFA) [9] and 0% in the test on Avena fatua (AVEFA) [10].

Regarding `COc1cc(F)c(-c2nc(C3C(=O)[C@@H]4CC[C@@H](C4)C3=O)c(C)s2)cc1F` (stereo partly shown) [Compound T68], the pest or weed control at 250 g/ha in [1] is 0%; in [2] it was 60%; in test [3] it was 0%; in the test on Setaria faberi (SETFA) [4], 80%; in the test with Avena fatua (AVEFA) [5], 70%; in test [6], 100%. For the same molecule, the pest or weed control at 250 g/ha in [7] was 70%; in test [8], 0%; in the test on Setaria faberi (SETFA) [9], 100%; in the test on Avena fatua (AVEFA) [10] it was 90%.

For `Cc1sc(-c2ccc(F)cc2F)nc1C1C(=O)[C@@H]2CC[C@@H](C2)C1=O` (stereo partly shown) [Compound T70], the pest or weed control at 250 g/ha in [1] was 60%; in test [2] it was 70%; in test [3], 100%; with Setaria faberi (SETFA) [4], 100%; in the test with Avena fatua (AVEFA) [5] it was 30%; in test [6], 100%. The pest or weed control at 250 g/ha in test [7] was 90%; in [8] it was 40%; in the test on Setaria faberi (SETFA) [9] it was 100%; with Avena fatua (AVEFA) [10] it was 50%.

In the case of `Cc1sc(-c2cc(Cl)ccc2Cl)nc1C1C(=O)[C@@H]2CC[C@@H](C2)C1=O` (stereo partly shown) [Compound T73], the pest or weed control at 250 g/ha in test [1] was found to be 0%; in test [2], 0%; in [3] it was 0%; in the test on Setaria faberi (SETFA) [4] it was 0%; with Avena fatua (AVEFA) [5], 50%; in test [6] it was 20%. Besides, the pest or weed control at 250 g/ha in [7] came out at 0%; in test [8], 0%; in the test on Setaria faberi (SETFA) [9], 30%; in the test on Avena fatua (AVEFA) [10], 0%.

`Cc1sc(-c2ccc(Cl)c(C#N)c2)nc1C1C(=O)C2CCC(C2)C1=O` (stereo not shown) [Compound T74]: the pest or weed control at 250 g/ha is 20% in test [1]; 30% in [2]; 100% in test [3]; 40% in the test on Setaria faberi (SETFA) [4]; 0% in the test on Avena fatua (AVEFA) [5]; 70% in test [6]. The pest or weed control at 250 g/ha in test [7] was determined as 50%; in test [8] it was 0%; with Setaria faberi (SETFA) [9], 90%; in the test with Avena fatua (AVEFA) [10], 0%.

`Cc1cc(Cl)ncc1-c1nc(C2C(=O)[C@@H]3CC[C@@H](C3)C2=O)c(C)s1` (stereo partly shown) [Compound T75]: the pest or weed control at 250 g/ha in [1] amounted to 40%; in test [2] it was 0%; in [3], 0%; with Setaria faberi (SETFA) [4], 90%; with Avena fatua (AVEFA) [5] it was 20%; in test [6], 70%. Besides, the pest or weed control at 250 g/ha amounted to 20% in [7], 0% in test [8], 90% in the test on Setaria faberi (SETFA) [9] and 0% with Avena fatua (AVEFA) [10].

Regarding `COc1ccc(-c2nc(C3C(=O)[C@@H]4CC[C@@H](C4)C3=O)c(C)s2)cc1F` (stereo partly shown) [Compound T76], the pest or weed control at 250 g/ha in test [1] came out at 50%; in [2], 0%; in test [3], 0%; in the test with Setaria faberi (SETFA) [4], 70%; with Avena fatua (AVEFA) [5] it was 0%; in test [6] it was 90%. For the same molecule, the pest or weed control at 250 g/ha in test [7] turned out to be 70%; in test [8], 0%; in the test on Setaria faberi (SETFA) [9] it was 80%; in the test on Avena fatua (AVEFA) [10] it was 50%.

Regarding `CCOc1ccc(-c2nc(C3C(=O)[C@@H]4CC[C@@H](C4)C3=O)c(C)s2)cc1F` (stereo partly shown) [Compound T77], the pest or weed control at 250 g/ha turned out to be 0% in [1]; 0% in [2]; 50% in test [3]; 0% in the test with Setaria faberi (SETFA) [4]; 0% with Avena fatua (AVEFA) [5]; 60% in test [6]. Further, the pest or weed control at 250 g/ha in test [7] was found to be 0%; in test [8] it was 0%; in the test on Setaria faberi (SETFA) [9], 70%; in the test on Avena fatua (AVEFA) [10], 0%.

For `C=Cc1ccc(-c2nc(C3C(=O)[C@@H]4CC[C@@H](C4)C3=O)c(C)s2)cc1` (stereo partly shown) [Compound T78], the pest or weed control at 250 g/ha in test [1] amounted to 0%; in [2], 0%; in [3], 0%; with Setaria faberi (SETFA) [4] it was 0%; in the test on Avena fatua (AVEFA) [5], 90%; in test [6] it was 70%. The pest or weed control at 250 g/ha in [7] turned out to be 60%; in [8], 0%; in the test with Setaria faberi (SETFA) [9] it was 80%; in the test with Avena fatua (AVEFA) [10] it was 0%.
